In ChEMBL document CHEMBL1212702:

test system: MCF7; test: Activity at estrogen receptor expressed in human MCF7 cells assessed as increase in receptor-mediated transcription by ERE-luciferase reporter gene assay relative to estradiol; assay type: cell-based; design: concentration or dose not given beside the values

`COC(=O)C1=C(C(=O)OC)[C@@H]2O[C@H]1C(c1ccc(O)cc1)=C2c1ccc(O)cc1` was tested. Which Activity did it give?
Its Activity is 50%.

For `Oc1ccc(-c2c(-c3ccccc3)nn3c(C(F)(F)F)cc(C(F)(F)F)nc23)cc1`, which Activity is on record?
The Activity was 10%.

`CCOC(=O)[C@@H]1[C@H](C(=O)OCC)[C@@H]2O[C@H]1C(c1ccc(O)cc1)=C2c1ccc(O)cc1` was tested. Which Activity did it give?
The Activity was 10%.

With `Oc1ccc(-c2n[nH]c3c(O)cccc23)c(O)c1` as the compound, how does the Activity read?
The Activity was < 50%.

For `Cn1c(N)nc2ncc(-c3ccccc3)cc21`, which Activity is on record?
The Activity was < 50%.
